From patent publication US6589970B2, “6-(aryl-amido or aryl-amidomethyl)-naphthalen-2-yloxy-acidic derivatives as inhibitors of plasminogen activator inhibitor type-1 (PAI-1)” (Wyeth, priority 2001, dated 2003) come the findings set out here.

Where a name gives a salt, the structure may show the parent alone.

This assay addresses T1, recombinant human plasminogen activator inhibitor-1 (PAI-1) (Homo sapiens, UniProt P05121).
T1 construct: purchased Molecular Innovations, Royal Oak, Mich
Briefly: Primary Screen for the PAI-1 Inhibition. Conditions: for % Inhib. 100 μM / inhibition at 100 µM: 100 μM test compound; for % Inhib. 25 μM / inhibition at 25 µM: 25 μM test compound; for inhibition at 25 µM: read-out: % Inhib. 25 μM; for inhibition at 100 µM: read-out: % Inhib. 100 μM. In kind it is biochemical. As for the experimental part: Test compounds are dissolved in DMSO at a final concentration of 10 mM, then diluted 100× in physiologic buffer. The inhibitory assay is initiated by the addition of the test compound (1-100 μM final concentration, maximum DMSO concentration of 0.2%) in a pH 6.6 buffer containing 140 nM recombinant human plasminogen activator inhibitor-1 (PAI-1; Molecular Innovations, Royal Oak, Mich.). Following a 1 hour incubation at room temperature, 70 nM of recombinant human tissue plasminogen activator (tPA) is added, and the combination of the test compound, PAI-1 and tPA is incubated for an additional 30 minutes. Following the second incubation, Spectrozyme-tPA (American Diagnostica, Greenwich, Conn.), a chromogenic substrate for tPA, is added and absorbance read at 405 nm at 0 and 60 minutes. Relative PAI-1 inhibition is equal to the residual tPA activity in the presence of the test compound and PAI-1. Control treatments include the complete inhibition of tPA by PAI-1 at the molar ratio employed (2:1), and the absence of any effect of the test compound on tPA alone.

T1 sequence (P05121 24-402): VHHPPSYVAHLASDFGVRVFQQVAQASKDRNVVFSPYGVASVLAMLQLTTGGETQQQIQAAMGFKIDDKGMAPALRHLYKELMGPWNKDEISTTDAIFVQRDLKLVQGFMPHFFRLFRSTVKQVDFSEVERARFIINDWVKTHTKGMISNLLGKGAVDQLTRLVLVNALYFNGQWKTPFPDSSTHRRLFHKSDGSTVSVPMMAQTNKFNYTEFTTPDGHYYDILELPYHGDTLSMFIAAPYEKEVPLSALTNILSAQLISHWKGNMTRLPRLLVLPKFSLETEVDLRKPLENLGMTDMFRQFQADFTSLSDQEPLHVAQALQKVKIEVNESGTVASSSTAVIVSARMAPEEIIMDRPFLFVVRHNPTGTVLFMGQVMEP

On to `O=C(O)COc1ccc2cc(CNC(=O)c3cc4ccccc4o3)ccc2c1` [Example 1], for which the “% Inhib. 100 μM” value was found to be 23%.

With `O=C(NCc1ccc2cc(OCc3nn[nH]n3)ccc2c1)c1cc2ccccc2o1` [Example 2], the “% Inhib. 25 μM” value amounted to 21% and the “% Inhib. 100 μM” value is given as 52%. `CCCCc1oc2ccccc2c1C(=O)Nc1ccc2cc(OCC(=O)O)ccc2c1` [Example 4, {6-[(2-Butyl-benzofuran-3-carbonyl)-amino]-naphthalen-2-yloxy}-acetic acid sodium salt]: the inhibition at 25 µM was found to be 3% and the inhibition at 100 µM came out at 66%. Regarding `O=C(O)COc1ccc2cc(CNC(=O)c3cc(-c4ccc(Cl)cc4)oc3C(F)(F)F)ccc2c1` [Example 11, [6-({[5-(4-Chloro-phenyl)-2-trifluoromethyl-furan-3-carbonyl]-amino}-methyl)-naphthalen-2-yloxy]-acetic acid], the inhibition at 100 µM came out at 32%. Take `CCCc1c(C(=O)NCc2ccc3cc(OCC(=O)O)ccc3c2)cnn1-c1ccccc1` [Example 12, (6-{[(1-phenyl-5-propyl-1H-pyrazole-4-carbonyl)-amino]-methyl}-naphthalen-2-yloxy)-acetic acid]: the inhibition at 25 µM was found to be 5% and the inhibition at 100 µM stood at 66%. For `CCCc1c(C(=O)NCc2ccc3cc(OCC(=O)O)ccc3c2)cnn1-c1ccc(Cl)cc1` [Example 13, [6-({[1-(4-Chloro-phenyl)-5-propyl-1H-pyrazole-4-carbonyl]-amino}-methyl)-naphthalen-2-yloxy]-acetic acid] the same measures were 5% and 52%.

For `CCCc1c(C(=O)NCc2ccc3c(Br)c(OCC(=O)O)ccc3c2)cnn1-c1ccccc1` [Example 15, (1-Bromo-6-{[(1-phenyl-5-propyl-1H-pyrazole-4-carbonyl)-amino]-methyl}-naphthalen-2-yloxy)-acetic acid], the inhibition at 25 µM was 5% and the inhibition at 100 µM was 92%. On to `O=C(O)COc1ccc2cc(CNC(=O)c3cnn(-c4ccc(Cl)cc4)c3C(F)(F)F)ccc2c1Br` [Example 16, [1-Bromo-6-({[1-(4-chloro-phenyl)-5-trifluoromethyl-1H-pyrazole-4-carbonyl]-amino}-methyl)-naphthalen-2-yloxy]-acetic acid], for which the inhibition at 25 µM is 12% and the inhibition at 100 µM came to 85%. Regarding `CCCCc1oc2ccccc2c1C(=O)NCc1ccc2c(Br)c(OCC(=O)O)ccc2c1` [Example 19, Sodium; (1-bromo-6-{[(2-butyl-benzofuran-3-carbonyl)-amino]-methyl}-naphthalen-2-yloxy)-acetate], the inhibition at 100 µM was 32%. Turning to `CCCCc1oc2ccccc2c1C(=O)N(CC)Cc1ccc2cc(OCc3nnn[nH]3)ccc2c1` [Example 35, 2-Butyl-benzofuran-3-carboxylic acid methyl-[6-(1H-tetrazol-5-ylmethoxy)-naphthalen-2ylmethyl]-methyl-amide], the inhibition at 25 µM is 26% and the inhibition at 100 µM was found to be 72%. The like results for `CN(Cc1ccc2c(Br)c(OCc3nnn[nH]3)ccc2c1)C(=O)c1ccc(Oc2cc(Cl)cc(Cl)c2)o1` [Example 38, 5-(3,5-Dichloro-phenoxy)-furan-2-carboxylic acid [5-bromo-6-(1H-tetrazol-5-ylmethoxy)-naphthalen-2-ylmethyl]-methyl-amide] were, in that order, 47% and 81%. In the case of `CCCCc1c(C(=O)N(C)Cc2ccc3c(Br)c(OCC(Cc4ccccc4)C(=O)O)ccc3c2)oc2ccccc12` (stereo not shown) [Example 40, 2-Benzyl-3-(1-bromo-6-{[(3-butyl-benzofuran-2-carbonyl)-methyl-amino]-methyl}-naphthalen-2-yloxy)-propionic acid], the inhibition at 25 µM was 60% and the inhibition at 100 µM came out at 96%. Consider `Cc1c(C(=O)N(C)Cc2ccc3c(Br)c(OCC(Cc4ccccc4)C(=O)O)ccc3c2)oc2ccccc12` (stereo not shown) [Example 42, Sodium; 2-benzyl-3-(1-bromo-6-{[methyl-(3-methyl-benzofuran-2-carbonyl)-amino]-methyl}-naphthalen-2-yloxy)-propionate], for which the inhibition at 25 µM came to 63% and the inhibition at 100 µM was determined as 79%. Consider `CCc1oc2ccccc2c1C(=O)NCc1ccc2c(Br)c(OC(Cc3ccccc3)C(=O)O)ccc2c1` (stereo not shown) [Example 58, 2-(1-Bromo-6-{[(2-ethyl-benzofuran-3-carbonyl)-amino]-methyl}-naphthalen-2-yloxy)-3-phenyl-propionic acid], for which the inhibition at 100 µM was 29%.

With `O=C(O)C(Cc1ccccc1)Oc1ccc2cc(CNC(=O)C3(c4ccc(Cl)cc4)CCCC3)ccc2c1Br` (stereo not shown) [Example 59], the “% Inhib. 100 μM” value is 44%. Regarding `O=C(NCc1ccc2c(Br)c(OC(Cc3ccccc3)C(=O)O)ccc2c1)c1ccc(-c2cccc(C(F)(F)F)c2)o1` (stereo not shown) [Example 60], the “% Inhib. 100 μM” value is reported as 30%. With `CN(Cc1ccc2c(Br)c(OC(Cc3ccccc3)C(=O)O)ccc2c1)C(=O)c1ccc(C2CCCCC2)cc1` (stereo not shown) [Example 61, 2-(1-Bromo-6-{[(4cyclohexyl-benzoyl)-methyl-amino]-methyl}-naphthalen-2-yloxy)-3-phenyl-propionic acid], the inhibition at 25 µM worked out at 24% and the inhibition at 100 µM was 75%. Take `CCCCc1oc2ccccc2c1C(=O)N(C)Cc1ccc2c(Br)c(OC(Cc3ccccc3)C(=O)O)ccc2c1` (stereo not shown) [Example 62, 2-(1-Bromo-6-{[(2-butyl-benzofuran-3-carbonyl)-methyl-amino]-methyl}naphthalen-2-yloxy)-3-phenyl-propionic acid]: the inhibition at 25 µM was 1% and the inhibition at 100 µM is 84%. `CCCc1ccc(-c2ccc(C(=O)N(C)Cc3ccc4c(Br)c(OC(Cc5ccccc5)C(=O)O)ccc4c3)cc2)cc1` (stereo not shown) [Example 63, 2-(1-Bromo-6-{[methyl-(4′-propyl-biphenyl-4-carbonyl)-amino]-methyl}-naphthalen-2-yloxy)-3-phenyl-propionic acid]: the inhibition at 25 µM was 14% and the inhibition at 100 µM stood at 69%. For `CCCc1c(C(=O)N(C)Cc2ccc3c(Br)c(OC(Cc4ccccc4)C(=O)O)ccc3c2)cnn1-c1ccccc1` (stereo not shown) [Example 66, 2-(1-Bromo-6-{[methyl-(1-phenyl-5-propyl-1H-pyrazole-4-carbonyl)-amino]-methyl}-naphthalen-2-yloxy)-3-phenyl-propionic acid] the same measures were 46% and 95%. The like results for `CCCc1ccc(-c2ccc(C(=O)N(Cc3ccccc3)Cc3ccc4c(Br)c(OC(Cc5ccccc5)C(=O)O)ccc4c3)cc2)cc1` (stereo not shown) [Example 70, 2-(6-{[Benzyl-(4′-propyl-biphenyl-4-carbonyl)-amino]-methyl}-1-bromo-naphthalen-2-yloxy)-3-phenyl propionic acid] were, in that order, 17% and 81%.

As for `O=C(O)C(Cc1ccccc1)Oc1ccc2cc(CN(Cc3ccccc3)C(=O)c3ccc(C4CCCCC4)cc3)ccc2c1Br` (stereo not shown) [Example 71], the “% Inhib. 25 μM” value is reported as 47% and the “% Inhib. 100 μM” value is listed as 78%. For `CCCc1c(C(=O)N(Cc2ccccc2)Cc2ccc3c(Br)c(OC(Cc4ccccc4)C(=O)O)ccc3c2)cnn1-c1ccccc1` (stereo not shown) [Example 72, 2-(6-{[Benzyl-(1-phenyl-5-propyl-1H-pyrozole-4-carbonyl)-amino]-methyl}-1-bromo-naphthalen-2-yloxy)-3-phenyl-propionic acid] the same measures were 56% and 68%. For the compound `O=C(O)COc1ccc2cc(NC(=O)c3cc(-c4ccccc4Cl)oc3C(F)(F)F)ccc2c1` [Example 73, (6-{[5-(2-Chloro-phenyl)-2-trifluoromethyl-furan-3-carbonyl]-amino}naphthalen-2-yloxy)-acetic acid], the inhibition at 25 µM was found to be 23% and the inhibition at 100 µM is 65%. The like results for `O=C(O)COc1ccc2cc(NC(=O)c3ccc(-c4cccc(C(F)(F)F)c4)o3)ccc2c1` [Example 74, (6-{[5-(3-Trifluoromethyl-phenyl)-furan-2-carbonyl]-amino}-naphthalen-2-yloxy)-acetic acid] were, in that order, 20% and 59%. For `O=C(O)COc1ccc2cc(NC(=O)C3(c4ccc(Cl)cc4)CCCC3)ccc2c1` [Example 75, (6-{[1-(4-Chloro-phenyl)-cyclopentanecarbonyl]-amino}-naphthalen-2-yloxy)-acetic acid] the same measures were 1% and 55%.

Consider `O=C(O)COc1ccc2cc(NC(=O)c3ccccc3OCc3ccccc3)ccc2c1` [Example 76], for which the “% Inhib. 25 μM” value is reported as 0% and the “% Inhib. 100 μM” value is recorded as 54%. Regarding `CC(C)(C)c1cc(C(=O)Nc2ccc3cc(OCC(=O)O)ccc3c2)cc(C(C)(C)C)c1` [Example 77, [6-(3,5-Di-tert-butyl-benzoylamino)-naphthalen-2yloxy]-acetic acid], the inhibition at 25 µM came to 27% and the inhibition at 100 µM was 51%.

In the case of `O=C(O)COc1ccc2cc(NC(=O)c3cc(-c4ccc(-c5ccccc5)cc4)oc3C(F)(F)F)ccc2c1` [Example 78, {6-[(5-Biphenyl-4-yl-2-trifluoromethyl-furan-3-carbonyl)-amino]-naphthalen-2-yloxy}-acetic acid], the inhibition at 25 µM is 24% and the inhibition at 100 µM came out at 51%.
